Source: patent US20250281465A1, “MOLECULES THAT ENHANCE EXTRACELLULAR VESICLE RELEASE” (priority 2022, published 2025)
Entries after “also recorded” stand apart in the source; their conditions may differ.

Tests used:
mBMDCs [1] = assay: Cell viability / cytotoxicity in mBMDCs (MTT); assay type: cell-based, mouse; details: for toxicity in exosome-depleted FBS medium: mBMDCs, 10 μM, 48 hours, MTT; for cytotoxicity of Ca influx inhibitors / chelators in mBMDC culture: 48 hours culture
Description: FIGS. 30A-30B. […] After 48 hours incubation, cell viability was determined by MTT assay.
mBMDCs (10^5 cells/200 μL/well) were treated with 10 and 5 μM of a test compound in 96-well plates overnight. After 18 hours of drug treatment, MTT (0.5 mg/ml) was added to each well. The cells were lysed after 6-8 hours incubation, and absorbance values at 570 and 650 nm were measured. PrestoBlue reagent (#A13261, Thermo Fisher Scientific) was used for cell viability assay in CD63 HTS as described earlier.
Cell viability assay. mBMDCs (2×10^6 cells/200 μL/well in RPMI1640 supplemented with dialyzed 10% FBS, or 1.5×10^6 cells/200 μL/well in RPMI1640 supplemented with 10% exosome depleted FBS) were treated with 10 μM of each test compound in 96-well plates. After 46-48 hours of compound treatment, MTT (0.5 mg/mL) was added to each well. The cells were lysed after overnight incubation, and absorbance values at 570 and 650 nm were measured.

mBMDCs [2] = assay: Intracellular Ca2+ influx (Fura-2/Fura-8) in mBMDCs; assay type: cell-based, mouse; details: 10 μM, vs Veh 0.5% DMSO / #634
mBMDCs [3] = assay: EV release from mBMDCs (differential ultracentrifugation, MRPS); details: 10 μM, 46-48 h, vs Veh
mBMDCs [4] = assay: IL-12 induction in mBMDCs (ELISA); assay type: cell-based, mouse; details: 10 μM / dose response
Description: (§1) All these analogs were evaluated for induction of IL-12 cytokine at 10 μM, followed by dose response IL-12 induction for selected analogs. These analogs were also evaluated for exosome release by quantitating EV release in the supernatant post 48 hours incubation with CD63-Tluc-CD9-EmGFP THP-1 reporter cells.
mBMDCs (10^5 cells/200 μL/well) were plated in wells of 96-well plates and treated with test compound (5 μM or 10 μM) or vehicle (0.5% DMSO) overnight.

[5] = test system: CD63-Tluc-CD9-EmGFP THP-1 reporter cells; assay: CD63 Tluc-CD9 EmGFP THP-1 reporter cell assay (EV/exosome release); assay type: cell-based, human; details: 634 analogs 10 μM, 48 hours
Description: as §1
In the HTS using CD63-Tluc-CD9EmGFP reporter cells (CD63 HTS), PMA (10 ng/ml) was used as a positive control (Shpigelman et al., 2021) and 0.5% DMSO was used as negative control (vehicle, Veh). Briefly, the harvested cells were resuspended in assay media containing 10% exosome-depleted […] (#A2720801, Thermo Fisher Scientific) and plated at 2×10^5 cells/mL (50 μL/well of 384-well plates) (#3674, Corning). Test compounds were added at a final concentration of 10 μM to cells and incubated for 48 hours at 37° C. Subsequently, the plate was centrifuged, supernatant (25 μL) was transferred, and chemiluminescent was measured as recombinant luciferase activity (RLU) after 10 minutes incubation with TurboLuc assay reagent (TurboLuc™ One-Step Glow Assay kit, Thermo Fisher Scientific). The response that measures activation and subsequent release of EVs was calculated using the following formula; % response=100×(compound RLU−average Veh RLU)/(average PMA RLU−average Veh RLU). The viability of cells was assessed using PrestoBlue reagent (Thermo Fisher Scientific). Briefly, PrestoBlue reagent (2.5 μl) was added to the remaining cells and incubated for 30 minutes at room temperature, followed by fluorescence readout at (Ex 560 nm/Em 590 nm) which was normalized to fluorescence data of the Veh wells within the plate to obtain “% viability” calculated as 100×(compound fluorescence/average Veh fluorescence).
CD63 Tluc-CD9 EmGFP THP-1 reporter cell assay. CD63 Tluc CD9 EmGFP THP-1 reporter cell (designated as CD63 Tluc reporter cells) were incubated with 10 μM test compounds, ION (1 μM), or 0.5% DMSO (negative control) in the RPMI 1640 supplemented with exosome-depleted FBS at 5×10^4 cells in 200 μL/well for a 96-well plate for 48 hours at 37° C. Subsequently, the plate was centrifuged, the supernatant was transferred, and chemiluminescence was measured by TurboLuc™ Luciferase One-Step Glow Assay Kit. The response that measures activation and subsequent release of EVs was calculated using the following formula; % response=100×(compound RLU−average Veh RLU)/(average PMA RLU−average Veh RLU).

TLR4 = TLR4 agonism in murine and human HEK-TLR4 reporter cells; assay type: cell-based
Description: FIG. 37. TLR4 agonism assays with analogs of 2B182c in human and murine TLR4 reporter cells.

Row | SMILES | intracellular Ca^2+ influx by 634 and its SAR analogs (Fura-2) (mBMDCs [2]) | TLR4 agonistic activity (TLR4) | further results
1 | Cc1sc(NS(=O)(=O)c2cccc3nsnc23)c(C(=O)OCc2ccccc2)c1C [2G179f, Benzyl 2-(benzo[c][1,2,5]thiadiazole-4-sulfonamido)-4,5-dimethylthiophene-3-carboxylate] | – | – | toxicity in exosome-depleted FBS medium (mBMDCs [1]): higher toxicity
2 | Cc1sc(NS(=O)(=O)c2cccc3nsnc23)c(C(=O)OC2CCCCC2)c1C [2G179e, Cyclohexyl 2-(benzo[c][1,2,5]thiadiazole-4-sulfonamido)-4,5-dimethylthiophene-3-carboxylate] | – | – | toxicity in exosome-depleted FBS medium (mBMDCs [1]): higher toxicity
3 | CCCOC(=O)c1c(NS(=O)(=O)c2cccc3c2N=S=N3)sc(C)c1C [2G176, Propyl 2-(benzo[c][1,2,5]thiadiazole-4-sulfonamido)-4,5-dimethylthiophene-3-carboxylate] | Ca^2+ influx positive | – | –
4 | O=C(O)CN(CCOCCOCCN(CC(=O)O)CC(=O)O)CC(=O)O [EGTA, reference compound] | – | – | number of EV particles released in the culture supernatant (mBMDCs [3]): increased EV release by mBMDC; also recorded: enhanced particle release from dead and dying cells; cytotoxicity of Ca influx inhibitors / chelators in mBMDC culture (mBMDCs [1]): cytotoxic; also recorded: toxic
5 | CCCCCCOC(=O)c1c(NS(=O)(=O)c2cccc3nsnc23)sc(C)c1C [2G179b, Hexyl 2-(benzo[c][1,2,5]thiadiazole-4-sulfonamido)-4,5-dimethylthiophene-3-carboxylate] | increased intracellular Ca^2+ levels more than that of #634 | – | toxicity in exosome-depleted FBS medium (mBMDCs [1]): higher toxicity
6 | COc1ccc(-c2nnc(-c3cccnc3)o2)cc1OC [#1310] | – | – | IL-12 induction (mBMDCs [4]): as potent as #645
7 | Cc1sc(NS(=O)(=O)c2cccc3nsnc23)c(C(=O)OC(C)(C)C)c1C [2G179 h, Tert-butyl 2-(benzo[c][1,2,5]thiadiazole-4-sulfonamido)-4,5-dimethylthiophene-3-carboxylate] | – | – | toxicity in exosome-depleted FBS medium (mBMDCs [1]): higher toxicity
8 | CC(=O)OCOC(=O)CN(CC(=O)OCOC(C)=O)c1ccccc1OCCOc1ccccc1N(CC(=O)OCOC(C)=O)CC(=O)OCOC(C)=O [BAPTA-AM, reference compound] | – | – | number of EV particles released in the culture supernatant (mBMDCs [3]): increased EV release by mBMDC; also recorded: enhanced particle release from dead and dying cells; cytotoxicity of Ca influx inhibitors / chelators in mBMDC culture (mBMDCs [1]): cytotoxic; also recorded: toxic
9 | Cc1sc(NS(=O)(=O)c2cccc3nsnc23)c(C(=O)O)c1C [2H013, 2-(benzo[c][1,2,5]thiadiazole-4-sulfonamido)-4,5-dimethylthiophene-3-carboxylic acid] | did not induce Ca^2+ influx in mBMDCs; also recorded: negative | – | luciferase activities in the culture supernatant of CD63 Tluc reporter cells [5]: did neither increase luciferase activities
10 | COC(=O)c1c(NS(=O)(=O)c2cccc3c2N=S=N3)sc(C)c1C [2G179a, Methyl 2-(benzo[c][1,2,5]thiadiazole-4-sulfonamido)-4,5-dimethylthiophene-3-carboxylate] | Ca^2+ influx positive | – | –
11 | CCOC(=O)c1c(N(C)S(=O)(=O)c2cccc3c2N=S=N3)sc(C)c1C [2F186, Ethyl 4,5-dimethyl-2-(N-methylbenzo[c][1,2,5]thiadiazole-4-sulfonamido)thiophene-3-carboxylate] | did not induce Ca^2+ influx in mBMDCs; also recorded: negative | – | luciferase activities in the culture supernatant of CD63 Tluc reporter cells [5]: did neither increase luciferase activities
12 | Cn1c2ccc(-c3ccco3)cc2c2nc(SCC(=O)NC3CCCCC3)n(-c3cccc(OCOP(=O)(O)O)c3)c(=O)c21 [2G202] | – | weakly active | –
13 | CCCCCCCCC(=O)Nc1cccc(-n2c(SCC(=O)NC3CCCCC3)nc3c4cc(-c5ccco5)ccc4n(C)c3c2=O)c1 [2G113] | – | did not retain equal potency | –
14 | Clc1ccc(-c2nnc(-c3cccnc3)o2)cc1 [#1311] | – | – | IL-12 induction (mBMDCs [4]): as potent as #645
15 | Cc1sc(NS(=O)(=O)c2cccc3nsnc23)c(C(=O)Oc2ccccc2)c1C [2G179g, Phenyl 2-(benzo[c][1,2,5]thiadiazole-4-sulfonamido)-4,5-dimethylthiophene-3-carboxylate] | lost potency; also recorded: Ca^2+ influx positive | – | –
16 | Cc1nnsc1C(=O)Nc1ccc(-n2nc(C(F)(F)F)cc2C(F)(F)F)cc1 [BTP2, reference compound] | – | – | number of EV particles released in the culture supernatant (mBMDCs [3]): increased EV release by mBMDC; cytotoxicity of Ca influx inhibitors / chelators in mBMDC culture (mBMDCs [1]): cytotoxic
17 | CCCCCCCC/C=C\CCCCCCCC(=O)OC[C@H](COP(=O)(O)OCCNC(=O)CCCC(=O)Oc1cccc(-n2c(SCC(=O)NC3CCCCC3)nc3c4cc(-c5ccco5)ccc4n(C)c3c2=O)c1)OC(=O)CCCCC/C=C\CCCCCCCC [2G177] | – | slightly less potent than 2G053; also recorded: the potency at the highest concentration was better | –
18 | Cn1c2ccc(-c3ccco3)cc2c2nc(SCC(=O)NC3CCCCC3)n(-c3ccc(O)c(O)c3)c(=O)c21 [2E255] | – | completely inactive | –
19 | c1ccc(-c2cn(-c3cncc(-c4cccs4)c3)nn2)cc1 [2H050] | – | – | IL-12 induction (mBMDCs [4]): significantly enhanced cytokine IL-12 induction
20 | Cc1cc(NS(=O)(=O)c2cccc3nsnc23)sc1C [2G182] | loss of potency | – | –
21 | Cn1c2ccc(-c3ccco3)cc2c2nc(SCC(=O)NC3CCCCC3)n(-c3cccc(O)c3)c(=O)c21 [2G053] | – | equipotent to compound 28182c | –
22 | Cc1sc(NS(=O)(=O)c2cccc3nsnc23)c(C(=O)OCCC(C)C)c1C [2G179d, Isopentyl 2-(benzo[c][1,2,5]thiadiazole-4-sulfonamido)-4,5-dimethylthiophene-3-carboxylate] | increased intracellular Ca^2+ levels more than that of #634 | – | toxicity in exosome-depleted FBS medium (mBMDCs [1]): higher toxicity
23 | Cc1sc(NS(=O)(=O)c2cccc3c2N=S=N3)c(C(=O)OC(C)C)c1C [2G179c, Isopropyl 2-(benzo[c][1,2,5]thiadiazole-4-sulfonamido)-4,5-dimethylthiophene-3-carboxylate] | increased intracellular Ca^2+ levels more than that of #634; also recorded: Ca^2+ influx positive | – | –
24 | CC(=O)Oc1cccc(-n2c(SCC(=O)NC3CCCCC3)nc3c4cc(-c5ccco5)ccc4n(C)c3c2=O)c1 [2G107] | – | potent | –
25 | CC(=O)Nc1cccc(-n2c(SCC(=O)NC3CCCCC3)nc3c4cc(-c5ccco5)ccc4n(C)c3c2=O)c1 [2G112] | – | did not retain equal potency | –
26 | CCCCCCCCC(=O)Oc1cccc(-n2c(SCC(=O)NC3CCCCC3)nc3c4cc(-c5ccco5)ccc4n(C)c3c2=O)c1 [2G108] | – | potent | –
27 | Cn1c2ccc(-c3ccco3)cc2c2nc(SCC(=O)NC3CCCCC3)n(-c3cccc(N)c3)c(=O)c21 [2G023a] | – | equipotent to compound 28182c | –
28 | CCNC(=O)c1c(NS(=O)(=O)c2cccc3c2N=S=N3)sc(C)c1C [2E241, 2-(benzo[c][1,2,5]thiadiazole-4-sulfonamido)-N-ethyl-4,5-dimethylthiophene-3-carboxamide] | loss of potency; also recorded: did not induce Ca^2+ influx in mBMDCs; also recorded: negative | – | luciferase activities in the culture supernatant of CD63 Tluc reporter cells [5]: did neither increase luciferase activities
